Here are results for eight molecules from US20210205291A1, “NITROGENOUS HETEROCYCLIC AMIDE DERIVATIVE, PREPARATION METHOD THEREOF, AND PHARMACEUTICAL APPLICATION” (Sichuan Haisco Pharmaceutical Co., Ltd., priority 2016, published 2021).

Assay [1] has as its target human muscarine receptor M3 (Homo sapiens, UniProt P20309). The assay can be described thus: Inhibitory activity against human muscarine receptor M3 (aequorin luminescence in CHO cells, acetylcholine challenge). It counts as cell-based. Conditions: CHO cells expressing hM3 and apo-Aequorin; acetylcholine chloride 112.92 nM. How it is done:
CHO cells (PerkinElmer, ES-212-AF) that stably express human muscarine receptor 3 (hM3) and apo-Aequorin were cultured at 37° C. 5% CO2 in Ham's F12 media (Invitrogen 12500-062) containing 10% fetal bovine serum (FBS) (Gibico 10099-141), 400 μg/mL G418 (sigma G5013) and 250 μg/mL Zeocin (Invivogen ant-zn-5p), until a confluency of 90% to 100% was reached. Cells were separated by rinsing with PBS/5 mM EDTA, collected by centrifugation, re-suspended in phenol red-free Ham's F12 media (Invitrogen 12500-062) containing 0.1% BSA (BOVOGEN BSAS 100), and counted. The cell concentration was adjusted to 1×10^6 cells/ml. 15 ml of the cell suspension was added to a 50-ml centrifuge tube, to which Coelenterazine-h (Promega S2011) was added to a final concentration of 5 μM. The tube was wrapped with a tin foil to shade light, and incubated on a rotary shaker at 20° C. for 4 hours. The cells were diluted with a phenol red-free/0.1% BSA Ham's F12 medium to a final concentration of 5.0/10^5 cells/ml, placed on a rotary shaker in low-speed rotation, and incubated at room temperature for at least 1 hour. The compounds of the Examples were formulated with DMSO into 10 mM stock solutions, diluted in series with a phenol red-free/0.1% BSAHam's F12 medium (log(M): −7, −8, −9, −10, −11), and added to a 96-well plate at 50 μl/well. 50 μl cell suspension was further added to each well (25,000 cells/well) and incubated for 15 min at room temperature. The 96-well plate was placed under a microplate reader (Perkin Elmer, Envision), and a 50 μl solution of acetylcholine chloride (Sigma A6625) was added to each well at a concentration of 112.92 nM (hM3) with a microplate reader sample injector. The luminescence was recorded over 20 seconds, and IC50 values were calculated and analyzed by Origin 7.5.

The test system of assay [2] is methacholine-induced bronchoconstriction in guinea pigs. The assay can be described thus: Inhibition against methacholine-induced bronchoconstriction in guinea pigs (PenH, whole-body plethysmograph). The assay is classed as in vivo. As to conditions: intratracheal, 0.3 nmol per animal, 3 mg/ml methacholine; for PenH Inhibition (%) 4 h: 4 h after administration; for PenH Inhibition (%) 24 h: 24 h after administration. As for the experimental part:
8-week-old guinea pigs (all male) were purchased from Vital River Laboratory Animal Technology Co., Ltd., and adapted for 3 days before the experiments were started. The test compounds were formulated into 0.6 mM stock solutions with 83% dry ethanol+17% Tween80, which were diluted 500 times before administration. Before administration, the animals were anesthetized with 5% isoflurane by using a small-animal anesthetic apparatus (Matrx: VME2), wherein the anesthetic duration was 1.5 to 2 min. The anesthetized guinea pigs were fixed on a tracheal cannula platform, and intratracheally administrated with the compounds at 250 μl/animal by using a rat liquid-aerosol administration kit (penn-century; MSA-250-R). 4 hours and 24 hours after administration, the enhanced pauses (PenH) of the guinea pigs were measured in a whole-body plethysmograph (DSI; GS220A12-R7B). 3 mg/ml methacholine (Mch) was administrated by nebulization for 36 sec, and data was recorded over 7 min. The average of PenH was calculated (see J Pharmacol Exp Ther 345:260-270).
PenH calculation formula: PenH=PEP/PIP*Pause; Pause=(Te−Tr)/Tr
Te: Duration of expiratory phase (s)
Tr: Duration of relaxation phase (s)
PEP: Expiratory peak flow rate (ml/s)
PIP: Inspiratory peak flow rate (ml/s)

Assay [3] addresses human β2-adrenergic receptor (Homo sapiens, UniProt P07550). The assay can be described thus: Agonistic activity on human β2-adrenergic receptor (LANCE Ultra cAMP Assay in CHO cells). It counts as cell-based. As to conditions: CHO cells expressing hβ2; cAMP TR-FRET. As for the experimental part: The agonistic activity of the compounds of the Examples on the human adrenergic receptor was measured by the LANCE Ultra cAMP Assay.
CHO cells (PerkinElmer, ES-034-AF) that stably express human adrenergic receptor (hβ2) were cultured at 37° C. 5% CO2 in MEM-alpha media (Invitrogen 12561-056) containing 10% fetal bovine serum (FBS) (Gibico 10099-141) and 250 μg/ml Zeocin (InvivoGen ant-zn-5p), until a confluency of 90% to 100% was reached. Then the agonism on cAMP was tested by using a LANCE Ultra cAMP Assay kit (PerkinElmer TRF0263). Cells were separated with PBS/5 mM EDTA, collected by centrifugation, re-suspended in Stimulation Buffer (1×HBSS, 5 mM HEPES, 0.5 mM IBMX, 0.1% BSA, pH=7.4), and adjusted to a cell concentration of 6×10^5 cells/ml. The compounds of the Examples were formulated with DMSO into 10 mM stock solutions, diluted in series with Stimulation Buffer, and added to a 384-well plate at 5 μl/well. 5 μl cell suspension was further added to each well (3,000 cells/well), incubated for 30 min at room temperature, then 5 μl of a 4×Eu-cAMP trace working solution was added to each well, and then 5 μl of a 4×Ulight-anti-cAMP working solution was added to each well, followed by incubation at room temperature for 1 hour. The 384-well plate was detected for TR-FRET under a microplate reader (Perkin Elmer, Envision), and EC50 values were calculated and analyzed by Origin 7.5.

Sequence of human muscarine receptor M3 (P20309 whole entry): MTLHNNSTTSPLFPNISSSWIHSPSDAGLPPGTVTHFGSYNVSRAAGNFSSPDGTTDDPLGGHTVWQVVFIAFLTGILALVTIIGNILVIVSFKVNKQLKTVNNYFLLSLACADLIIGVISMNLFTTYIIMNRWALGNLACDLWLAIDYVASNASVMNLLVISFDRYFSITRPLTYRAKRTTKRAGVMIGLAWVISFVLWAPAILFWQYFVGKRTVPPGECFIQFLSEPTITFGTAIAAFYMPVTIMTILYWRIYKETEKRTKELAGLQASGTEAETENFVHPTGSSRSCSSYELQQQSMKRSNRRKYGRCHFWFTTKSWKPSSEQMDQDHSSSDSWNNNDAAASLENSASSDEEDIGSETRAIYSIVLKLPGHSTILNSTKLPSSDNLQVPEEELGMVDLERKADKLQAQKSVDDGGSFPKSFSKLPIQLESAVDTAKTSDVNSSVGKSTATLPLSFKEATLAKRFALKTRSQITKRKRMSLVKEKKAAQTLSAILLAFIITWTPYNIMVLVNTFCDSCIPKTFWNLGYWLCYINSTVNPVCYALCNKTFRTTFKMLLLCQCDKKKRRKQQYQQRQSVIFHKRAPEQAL
Sequence of human β2-adrenergic receptor (P07550 whole entry): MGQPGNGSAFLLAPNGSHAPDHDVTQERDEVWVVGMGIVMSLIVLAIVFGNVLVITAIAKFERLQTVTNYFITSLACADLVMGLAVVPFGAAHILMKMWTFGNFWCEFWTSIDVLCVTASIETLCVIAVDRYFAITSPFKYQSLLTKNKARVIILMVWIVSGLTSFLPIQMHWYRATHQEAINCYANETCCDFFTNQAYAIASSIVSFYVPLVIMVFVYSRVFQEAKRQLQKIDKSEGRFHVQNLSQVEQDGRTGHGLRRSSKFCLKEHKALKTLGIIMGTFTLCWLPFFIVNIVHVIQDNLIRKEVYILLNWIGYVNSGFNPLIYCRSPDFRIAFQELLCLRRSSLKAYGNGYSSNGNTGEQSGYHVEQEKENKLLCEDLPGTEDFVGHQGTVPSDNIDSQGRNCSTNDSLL

`O=C(Nc1ccccc1-c1ccccc1)OC1CCN(CCC(=O)N2CCC(C(=O)Nc3ccc(CNC[C@H](O)c4ccc(O)c5[nH]c(=O)ccc45)cc3)CC2)CC1` [Compound 1, [1-[3-[4-[[4-[[[(2R)-2-hydroxy-2-(8-hydroxy-2-oxo-1H-quinolin-5-yl)ethyl]amino]methyl]phenyl]carbamoyl]-1-piperidyl]-3-oxo-propyl]-4-piperidyl]N-(2-phenylphenyl)carbamate; ditrifluoroacetic acid] returned an IC50 in assay [1] of 14.4 nM.

On to `O=C(Nc1ccc(CNC[C@H](O)c2ccc(O)c3[nH]c(=O)ccc23)c(F)c1)OCC1CCN(C(=O)CCN2CCC(OC(=O)Nc3ccccc3-c3ccccc3)CC2)CC1` [Compound 8, [1-[3-[4-[(2-phenylphenyl)carbamoyloxy]-1-piperidyl]propanoyl]-4-piperidyl]methyl N-[3-fluoro-4-[[[(2R)-2-hydroxy-2-(8-hydroxy-2-oxo-1H-quinolin-5-yl)ethyl]amino]methyl]phenyl]carbamate; ditrifluoroacetic acid], for which, in assay [2], the “PenH Inhibition (%) 4 h” value was found to be 78.2% and the “PenH Inhibition (%) 24 h” value is reported as 45.3%. Moreover, it took 3.34 nM to reach a half-maximal effect in assay [3] (EC50). In assay [1], the IC50 came out at 3.33 nM.

`COc1cc(NC(=O)OCC2CCN(C(=O)CCN3CCC(OC(=O)Nc4ccccc4-c4ccccc4)CC3)CC2)c(Cl)cc1CNC[C@H](O)c1ccc(O)c2[nH]c(=O)ccc12` [Compound 3, [1-[3-[4-[(2-phenylphenyl)carbamoyloxy]-1-piperidyl]propanoyl]-4-piperidyl]methyl N-[2-chloro-4-[[[(2R)-2-hydroxy-2-(8-hydroxy-2-oxo-1H-quinolin-5-yl)ethyl]amino]methyl]-5-methoxy-phenyl]carbamate; di(2,2,2-trifluoroacetic acid)] came in with an EC50 in assay [3] of 10.2 nM. Also, inhibition in assay [1] was half-maximal at 3.76 nM (IC50).

Take `O=C(Nc1ccc(CNC[C@H](O)c2ccc(O)c3[nH]c(=O)ccc23)cc1F)OCC1CCN(C(=O)CCN2CCC(OC(=O)Nc3ccccc3-c3ccccc3)CC2)CC1` [Compound 7, [1-[3-[4-[(2-phenylphenyl)carbamoyloxy]-1-piperidyl]propanoyl]-4-piperidyl]methyl N-[2-fluoro-4-[[[(2R)-2-hydroxy-2-(8-hydroxy-2-oxo-1H-quinolin-5-yl)ethyl]amino]methyl]phenyl]carbamate; ditrifluoroacetic acid]: in assay [2], the “PenH Inhibition (%) 4 h” value was determined as 72.1% and the “PenH Inhibition (%) 24 h” value was determined as 55.8%. In assay [3], this molecule came in with an EC50 of 6.01 nM. Moreover, the 50% inhibitory concentration (IC50) in assay [1] worked out at 1.31 nM.

As to `O=C(CC1CCN(C(=O)CCN2CCC(OC(=O)Nc3ccccc3-c3ccccc3)CC2)CC1)Nc1ccc(CNC[C@H](O)c2ccc(O)c3[nH]c(=O)ccc23)cc1` [Compound 9, [1-[3-[4-[2-[4-[[[(2R)-2-hydroxy-2-(8-hydroxy-2-oxo-1H-quinolin-5-yl)ethyl]amino]methyl]anilino]-2-oxo-ethyl]-1-piperidyl]-3-oxo-propyl]-4-piperidyl]N-(2-phenylphenyl)carbamate; di(trifluoroacetic acid)], the EC50 in assay [3] turned out to be 3.96 nM. The molecule further had a half-maximal inhibitory concentration (IC50) in assay [1] of 3.73 nM.

In assay [1], `COc1cc(NC(=O)OC[C@@H]2CCN(C(=O)CCN3CCC(OC(=O)Nc4ccccc4-c4ccccc4)CC3)C2)c(Cl)cc1CNC[C@H](O)c1ccc(O)c2[nH]c(=O)ccc12` [Compound 4, [(3R)-1-[3-[4-[(2-phenylphenyl)carbamoyloxy]-1-piperidyl]propanoyl]pyrrolidin-3-yl]methyl N-[2-chloro-4-[[[(2R)-2-hydroxy-2-(8-hydroxy-2-oxo-1H-quinolin-5-yl)ethyl]amino]methyl]-5-methoxy-phenyl]carbamate; di(2,2,2-trifluoro)acetic acid] showed an IC50 of 2.26 nM.

Molecule `CN(CCNC[C@H](O)c1ccc(O)c2[nH]c(=O)ccc12)C(=O)C1CCN(C(=O)CCN2CCC(OC(=O)Nc3ccccc3-c3ccccc3)CC2)CC1` [Compound 6, [1-[3-[4-[2-[[(2R)-2-hydroxy-2-(8-hydroxy-2-oxo-1H-quinolin-5-yl)ethyl]amino]ethyl-methyl-carbamoyl]-1-piperidyl]-3-oxo-propyl]-4-piperidyl]N-(2-phenylphenyl)carba mate; ditrifluoroacetic acid] returned an EC50 in assay [3] of 17.4 nM. The concentration for half-maximal inhibition (IC50) in assay [1] worked out at 6.49 nM.

Take `COc1cc(NC(=O)OC[C@H]2CCN(C(=O)CCN3CCC(OC(=O)Nc4ccccc4-c4ccccc4)CC3)C2)c(Cl)cc1CNC[C@H](O)c1ccc(O)c2[nH]c(=O)ccc12` [Compound 5, [(3S)-1-[3-[4-[(2-phenylphenyl)carbamoyloxy]-1-piperidyl]propanoyl]pyrrolidin-3-yl]methyl N-[2-chloro-4-[[[(2R)-2-hydroxy-2-(8-hydroxy-2-oxo-1H-quinolin-5-yl)ethyl]amino]methyl]-5-methoxy-phenyl]carbamate; ditrifluoroacetic acid]: in assay [2], the “PenH Inhibition (%) 4 h” value is recorded as 96.4% and the “PenH Inhibition (%) 24 h” value was 78.6%. The same molecule returned an IC50 in assay [1] of 0.89 nM.
